From patent US6642392B1 (priority 1997, dated 2003)
Read-outs that look alike come from different tables or passages of the source.

Key:
Format in all cases: in vivo
[1] = system: Eiysiphe graminis f. sp. tritici; assay: Test A: wheat powdery mildew, preventive spray on wheat seedlings; details: for Test A disease control rating (100 = 100% disease control, 0 = no disease control): wheat seedlings sprayed to run-off, inoculated the following day, rating relative to controls, unmarked compounds (standard test rate); for Test A disease control rating: wheat powdery mildew
How it was run: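 Preventive test: seedlings inoculated with powdery mildew spores one day after run-off spraying of a suspension. Ratings after 7 days in a 20° C growth chamber express percent disease control versus controls.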

Puccinia recondita = assay: Test B: wheat leaf rust, preventive spray on wheat seedlings; details: for Test B disease control rating (100 = 100% disease control, 0 = no disease control): wheat seedlings sprayed to run-off, inoculated the following day, rating relative to controls, unmarked compounds (standard test rate); for Test B disease control rating: wheat leaf rust
How it was run: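 Preventive test: P. recondita spores were applied one day after a run-off spray of compound suspension on wheat seedlings. Plants had 24 h at 20 °C in saturated air plus 6 days in a 20 °C growth chamber. Scoring is % disease control (100 = full) relative to controls.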

Pyricularia oryzae = details: for Test C disease control rating (100 = 100% disease control, 0 = no disease control): rice seedlings sprayed to run-off, inoculated the following day, rating relative to controls, unmarked compounds (standard test rate); for Test C disease control rating: rice blast
Phytophthora infestans = details: for Test D disease control rating (100 = 100% disease control, 0 = no disease control): tomato seedlings sprayed to run-off, inoculated the following day, rating relative to controls, unmarked compounds (standard test rate); for Test D disease control rating: tomato late blight
Botrytis cinerea = assay: Test E: gray mold, preventive spray on cucumber seedlings; details: for Test E disease control rating (100 = 100% disease control, 0 = no disease control): cucumber seedlings sprayed to run-off, inoculated the following day, rating relative to controls, unmarked compounds (standard test rate); for Test E disease control rating: gray mold on cucumber
How it was run: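 Preventive spray on cucumber seedlings used a suspension (3% acetone, 250 ppm Trem 014), applied to run-off one day before inoculation with Botrytis cinerea spores. Plants were held 48 h at 20° C in saturated air, then 5 days at 20° C. Percent disease control was scored relative to untreated plants.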

[2] = 100 = 100% disease control, 0 = no control relative to controls, unmarked entries (standard test concentration)
[3] = 100 = 100% disease control, 0 = no control, unmarked entries (standard test concentration)

Structure (SMILES) | Test A disease control rating [1, 2] | Test B disease control rating (Puccinia recondita; [3]) | Test C disease control rating (Pyricularia oryzae; [3]) | Test D disease control rating (Phytophthora infestans; [3]) | Test E disease control rating (Botrytis cinerea; [3]) | also measured
C=CCC(C#N)C(=O)NC(C)C(Oc1cc(F)ccc1C#N)c1ccccc1 (mixture of isomers) [compound 284] |  |  |  |  |  | Test A disease control rating (100 = 100% disease control, 0 = no disease control) [1]: 0%; Test B disease control rating (100 = 100% disease control, 0 = no disease control) (Puccinia recondita): 0%; Test C disease control rating (100 = 100% disease control, 0 = no disease control) (Pyricularia oryzae): 99%; Test D disease control rating (100 = 100% disease control, 0 = no disease control) (Phytophthora infestans): 0%; Test E disease control rating (100 = 100% disease control, 0 = no disease control) (Botrytis cinerea): 0%
CC(COc1cc(Cl)ccc1Cl)NC(=O)C(C#N)C(C)C(C)(C)C (mixture of isomers) [compound 62] |  |  |  |  |  | Test A disease control rating ([1]; tested at 40 ppm): 74%; Test B disease control rating (Puccinia recondita; tested at 40 ppm): 0%; Test C disease control rating (Pyricularia oryzae; tested at 40 ppm): 52%; Test D disease control rating (Phytophthora infestans; tested at 40 ppm): 0%; Test E disease control rating (Botrytis cinerea; tested at 40 ppm): 0%
CCC1(C(=O)NC(C)COc2ccccc2I)C(C)C1(Cl)Cl (mixture of isomers) [87a] |  |  |  |  |  | Test A disease control rating ([1]; tested at 40 ppm): 0%; Test B disease control rating (Puccinia recondita; tested at 40 ppm): 0%; Test C disease control rating (Pyricularia oryzae; tested at 40 ppm): 74%; Test D disease control rating (Phytophthora infestans; tested at 40 ppm): 0%; Test E disease control rating (Botrytis cinerea; tested at 40 ppm): 0%
CC(COc1cc(F)c(F)cc1C#N)NC(=O)C(C#N)C(C)C(C)(C)C (mixture of isomers) [compound 278] |  |  |  |  |  | Test A disease control rating (100 = 100% disease control, 0 = no disease control) [1]: 56%; Test B disease control rating (100 = 100% disease control, 0 = no disease control) (Puccinia recondita): 67%; Test C disease control rating (100 = 100% disease control, 0 = no disease control) (Pyricularia oryzae): 32%; Test D disease control rating (100 = 100% disease control, 0 = no disease control) (Phytophthora infestans): 0%; Test E disease control rating (100 = 100% disease control, 0 = no disease control) (Botrytis cinerea): 94%
CCC1(C(=O)NC(C)COc2cc(F)ccc2C#N)C(C)C1(Cl)Cl (centres unmarked) [compound 245] |  |  |  |  |  | Test A disease control rating (100 = 100% disease control, 0 = no disease control) [1]: 72%; Test B disease control rating (100 = 100% disease control, 0 = no disease control) (Puccinia recondita): 0%; Test C disease control rating (100 = 100% disease control, 0 = no disease control) (Pyricularia oryzae): 100%; Test D disease control rating (100 = 100% disease control, 0 = no disease control) (Phytophthora infestans): 0%; Test E disease control rating (100 = 100% disease control, 0 = no disease control) (Botrytis cinerea): 0%
Cc1ccc(Cl)c(OC[C@@H](C)NC(=O)C(C#N)C(C)(C)C)c1 (single isomer, unassigned) [15b] | 0% | 0% | 97% | 45% | 0% | 
Cc1ccccc1OCC(C)NC(=O)C(C#N)C(C)(C)C (mixture of isomers) [compound 19] | 0% | 0% | 97% | 0% | 0% | 
Cc1c(Br)cc(C#N)n1OCC(C)NC(=O)C(C#N)C(C)(C)C (mixture of isomers) [compound 50] | 86% | 28% | 53% | 57% | 0% | 
CCC1(C(=O)NCC=Cc2ccccc2)C(C)C1(Cl)Cl (centres unmarked) [compound 156] |  |  |  |  |  | Test A disease control rating ([1]; tested at 40 ppm): 0%; Test B disease control rating (Puccinia recondita; tested at 40 ppm): 0%; Test C disease control rating (Pyricularia oryzae; tested at 40 ppm): 0%; Test D disease control rating (Phytophthora infestans; tested at 40 ppm): 0%; Test E disease control rating (Botrytis cinerea; tested at 40 ppm): 0%
CCC1(C(=O)NCCCn2cccc2)C(C)C1(Cl)Cl (centres unmarked) [compound 145] | 0% | 9% | 0% | 20% | 0% | 
C[C@H](COc1cc(F)ccc1Cl)NC(=O)C(C#N)C(C)(C)C (single isomer, unassigned) [191b] | 0% | 0% | 100% | 47% | 55% | 
CCC1(C(=O)NC(C)COn2c(C#N)cc(Br)c2C)C(C)C1(Cl)Cl (mixture of isomers) [compound 141] | 38% | 68% | 74% | 84% | 0% | 
CC(COc1cc(I)ccc1C#N)NC(=O)C(C#N)C(C)(C)C (mixture of isomers) [compound 46] | 0% | 0% | 53% | 66% | 0% | 
CC(COc1c(Cl)cccc1C#N)NC(=O)C(C#N)C(C)(C)C (mixture of isomers) [compound 210] | 0% | 0% | 91% | 0% | 0% | 
CCC1(C(=O)NC(C)COn2cc(Br)cc2C#N)C(C)C1(Cl)Cl (mixture of isomers) [compound 137] | 0% | 0% | 53% | 0% | 0% | 
CC(COc1ccccc1)NC(=O)C1(C)C(C)C1(Cl)Cl (mixture of isomers) [compound 310] |  |  |  |  |  | Test A disease control rating (100 = 100% disease control, 0 = no disease control) [1]: 84%; Test B disease control rating (100 = 100% disease control, 0 = no disease control) (Puccinia recondita): 25%; Test C disease control rating (100 = 100% disease control, 0 = no disease control) (Pyricularia oryzae): 53%; Test D disease control rating (100 = 100% disease control, 0 = no disease control) (Phytophthora infestans): 0%; Test E disease control rating (100 = 100% disease control, 0 = no disease control) (Botrytis cinerea): 18%
C=CC(C)(CC)C(C#N)C(=O)NC(C)COc1cc(F)ccc1F (mixture of isomers) [compound 296] |  |  |  |  |  | Test A disease control rating (100 = 100% disease control, 0 = no disease control) [1]: 0%; Test B disease control rating (100 = 100% disease control, 0 = no disease control) (Puccinia recondita): 0%; Test C disease control rating (100 = 100% disease control, 0 = no disease control) (Pyricularia oryzae): 100%; Test D disease control rating (100 = 100% disease control, 0 = no disease control) (Phytophthora infestans): 24%; Test E disease control rating (100 = 100% disease control, 0 = no disease control) (Botrytis cinerea): 0%
C[C@H](COc1ccccc1)NC(=O)C(C#N)C(C)(C)C (single isomer, unassigned) [1e] | 92% | 0% | 100% | 80% | 47% | 
CC(CCn1cc(Cl)cc1C#N)NC(=O)C(C#N)C(C)(C)C (mixture of isomers) [compound 53] | 0% | 0% | 53% | 0% | 0% | 
C[C@H](COc1cc(F)ccc1Cl)NC(=O)C(C#N)C(C)(C)C (single isomer, unassigned) [191a] | 0% | 0% | 100% | 25% | 85% | 
C=C(F)C(C)(C)C(C#N)C(=O)NC(C)COc1cc(F)ccc1Cl (mixture of isomers) [compound 223] |  |  |  |  |  | Test A disease control rating (100 = 100% disease control, 0 = no disease control) [1]: 62%; Test B disease control rating (100 = 100% disease control, 0 = no disease control) (Puccinia recondita): 28%; Test C disease control rating (100 = 100% disease control, 0 = no disease control) (Pyricularia oryzae): 100%; Test D disease control rating (100 = 100% disease control, 0 = no disease control) (Phytophthora infestans): 41%; Test E disease control rating (100 = 100% disease control, 0 = no disease control) (Botrytis cinerea): 0%
CCC1(C(=O)NC(C)COc2ccccc2SC(F)(F)C(F)F)C(C)C1(Cl)Cl (mixture of isomers) [compound 91] | 74% | 0% | 53% | 0% | 0% | 
